Measured values from patent US20240116896A1 (ATAI Life Sciences AG, priority 2022, published 2024).

Key:
5-HT2A = 5-HT2A (Homo sapiens, UniProt P28223); test: IPOne (IP1 HTRF) assay, CHO-K1 cells expressing human 5-HT2A; format: cell-based; parameters: expressed in transfected cells; host or cells: CHO-K1; conditions: for activation at 0.3 µM / activation at 30 µM: CHO-K1, percentage of reference agonist α-Me-5-HT at its EC100; for EC50: CHO-K1, human 5-HT2A
Method: (§1) IPOne assays were performed using stably-transfected cell lines (CHO-K1) expressing human 5-HT2A or 5-HT2B receptors. Upon activation of these receptors, Gq-mediated myo-Inositol 1 phosphate (IP1) production is detected by a Homogeneous Time-Resolved Fluorescence (HTRF) competitive immunoassay, whereby an IP1 analog coupled to a fluorophore (acceptor) competes with endogenous IP1 for binding to a labeled anti-IP1 antibody (donor). The resulting signal is inversely proportional to the concentration of IP1 in the sample. Cells were incubated with an IP1 inhibitor (to prevent degradation and allow detection) and either reference compound or test compound. α-Me-5-HT was used as the assay reference agonist. Activation of 5-HT2A or 5-HT2B receptors was measured via accumulation of IP1 detected by HTRF. Agonist activity of test compounds was expressed as a percentage of the activity of the reference agonist at its EC100 concentration.

5-HT2B = 5-HT2B (Homo sapiens, UniProt P41595); test: IPOne (IP1 HTRF) assay, CHO-K1 cells expressing human 5-HT2B; format: cell-based; parameters: expressed in transfected cells; host or cells: CHO-K1; conditions: for activation at 0.3 µM / activation at 30 µM: CHO-K1, percentage of reference agonist α-Me-5-HT at its EC100; for EC50: CHO-K1, human 5-HT2B
Chain of 5-HT2B (P41595 whole entry): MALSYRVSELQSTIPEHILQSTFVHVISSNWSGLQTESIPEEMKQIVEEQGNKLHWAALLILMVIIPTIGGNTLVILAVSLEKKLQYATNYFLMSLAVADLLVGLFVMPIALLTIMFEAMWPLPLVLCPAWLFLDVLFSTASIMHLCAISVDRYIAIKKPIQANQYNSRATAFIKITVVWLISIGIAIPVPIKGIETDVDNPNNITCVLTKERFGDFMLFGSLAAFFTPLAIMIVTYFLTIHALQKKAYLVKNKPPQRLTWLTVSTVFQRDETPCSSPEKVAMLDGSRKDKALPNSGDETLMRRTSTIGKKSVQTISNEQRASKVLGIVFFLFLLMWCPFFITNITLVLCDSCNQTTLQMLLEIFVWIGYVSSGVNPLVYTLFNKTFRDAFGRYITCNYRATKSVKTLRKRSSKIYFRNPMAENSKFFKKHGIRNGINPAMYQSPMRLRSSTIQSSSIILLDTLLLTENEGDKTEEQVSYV
Method: as §1

Chain of 5-HT2A (P28223 whole entry): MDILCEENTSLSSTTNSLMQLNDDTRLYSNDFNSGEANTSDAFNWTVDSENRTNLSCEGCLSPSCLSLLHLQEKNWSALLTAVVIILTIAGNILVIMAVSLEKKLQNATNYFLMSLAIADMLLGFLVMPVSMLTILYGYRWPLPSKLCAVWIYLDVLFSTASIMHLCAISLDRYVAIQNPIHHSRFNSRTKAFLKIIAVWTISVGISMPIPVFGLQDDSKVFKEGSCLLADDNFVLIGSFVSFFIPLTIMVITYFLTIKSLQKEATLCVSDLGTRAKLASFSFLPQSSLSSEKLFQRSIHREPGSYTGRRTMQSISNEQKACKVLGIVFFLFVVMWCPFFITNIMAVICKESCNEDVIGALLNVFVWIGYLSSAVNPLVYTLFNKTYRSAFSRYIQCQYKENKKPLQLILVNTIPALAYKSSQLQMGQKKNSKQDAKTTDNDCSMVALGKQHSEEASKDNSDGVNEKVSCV

Row | Structure (SMILES) | activation at 0.3 µM (5-HT2A) [%] | activation at 30 µM (5-HT2A) [%] | activation at 0.3 µM (5-HT2B) [%] | activation at 30 µM (5-HT2B) [%] | EC50 (5-HT2A) [nM] | EC50 (5-HT2B) [nM]
1 | OC1CCN(CCc2c[nH]c3ccccc23)C1 (stereo not shown) [Compound 7, 1-(2-(1H-indol-3-yl)ethyl)pyrrolidin-3-ol] | 7.01 | 42 | 5.71 | 28.7 | – | –
2 | NCC1CCCN1CCc1c[nH]c2ccccc12 (stereo not shown) [Compound 22] | 10.2 | 99 | 20 | 99.6 | – | –
3 | OCC1CCCN1CCc1c[nH]c2cccc(O)c12 (stereo not shown) [Compound 29, 3-(2-(2-(hydroxymethyl)pyrrolidin-1-yl)ethyl)-1H-indol-4-ol] | 99.4 | 99.2 | 90.8 | 96.4 | – | –
4 | COc1ccc2[nH]cc(CCN3CCCC3CO)c2c1 (stereo not shown) [Compound 30] | 97.8 | 100 | 89.4 | 98.8 | – | –
5 | OC[C@@H]1CCCN1CCc1c[nH]c2ccccc12 [Compound 31, (S)-(1-(2-(1H-indol-3-yl)ethyl)pyrrolidin-2-yl)methanol] | 76.5 | 99.5 | 54.6 | 97 | 62.1 | 126
6 | OC[C@H]1CCCN1CCc1c[nH]c2ccccc12 [Compound 32, (R)-(1-(2-(1H-indol-3-yl)ethyl)pyrrolidin-2-yl)methanol] | 7.16 | 42.1 | 4.28 | 33.9 | – | –
7 | COC(=O)[C@@H]1CCCN1CCc1c[nH]c2ccccc12 [Compound 33, methyl (2-(1H-indol-3-yl)ethyl)-L-prolinate] | 44 | 94.4 | 33.9 | 91.3 | 806 | 456
8 | COC(=O)[C@H]1CCCN1CCc1c[nH]c2ccccc12 [Compound 34, methyl (2-(1H-indol-3-yl)ethyl)-D-prolinate] | 4.6 | 29.9 | 1.34 | 35.1 | – | –
9 | COc1ccc(Br)c2[nH]cc(CCN3CCCC3CO)c12 (stereo not shown) [Compound 42, (1-(2-(7-bromo-4-methoxy-1H-indol-3-yl)ethyl)pyrrolidin-2-yl)methanol] | 78.5 | 94.1 | 22 | 46.2 | – | –
10 | COc1cccc2[nH]cc(CCN3CCC[C@H]3CO)c12 [Compound 48, (S)-(1-(2-(4-methoxy-1H-indol-3-yl)ethyl)pyrrolidin-2-yl)methanol] | 83.2 | 90.9 | 62 | 83.4 | 11.2 | 22.2
11 | OC[C@@H]1CCCN1CCc1c[nH]c2cccc(O)c12 [Compound 49, (S)-3-(2-(2-(hydroxymethyl)pyrrolidin-1-yl)ethyl)-1H-indol-4-ol] | 99.2 | 100 | 92 | 99.1 | 22.5 | 43.2
12 | COc1ccc2[nH]cc(CCN3CCC[C@H]3CO)c2c1 [Compound 50] | 100 | 103 | 101 | 101 | 12.5 | 8.8
13 | OC[C@@H]1CCCN1CCc1c[nH]c2ccc(O)cc12 [Compound 51] | 99 | 101 | 85.7 | 99.1 | 45.6 | 86.7
14 | CCOC(=O)[C@@H]1CCCN1CCc1c[nH]c2ccccc12 [Compound 52, ethyl (2-(1H-indol-3-yl)ethyl)-L-prolinate] | 24 | 101 | 25.4 | 99.2 | 888 | 2560
15 | OC[C@H]1CCN1CCc1c[nH]c2ccccc12 [Compound 53, (R)-(1-(2-(1H-indol-3-yl)ethyl)azetidin-2-yl)methanol] | 3.07 | 70.7 | 16.3 | 74.7 | – | –
16 | OC[C@@H]1CCN1CCc1c[nH]c2ccccc12 [Compound 54, (S)-(1-(2-(1H-indol-3-yl)ethyl)azetidin-2-yl)methanol] | 81.1 | 101 | 62 | 97.9 | 249 | 780
17 | CC(C)OC(=O)[C@@H]1CCCN1CCc1c[nH]c2ccccc12 [Compound 55, isopropyl (2-(1H-indol-3-yl)ethyl)-L-prolinate] | 68.1 | 101 | 37.7 | 102 | 358 | 1040
18 | OC[C@@H]1CCCN1CCc1c(Br)[nH]c2ccccc12 [Compound 57, (S)-(1-(2-(2-bromo-1H-indol-3-yl)ethyl)pyrrolidin-2-yl)methanol] | 4.69 | 30.9 | -1.03 | 73 | – | –
19 | OC[C@@H]1CCCN1CCc1c[nH]c2ccc(F)cc12 [Compound 59, (S)-(1-(2-(5-fluoro-1H-indol-3-yl)ethyl)pyrrolidin-2-yl)methanol] | 86.3 | 89.4 | 79.8 | 85.7 | 7.7 | 8.9
20 | OC[C@@H]1CCCN1CCc1c[nH]c2ccc(OC(F)(F)F)cc12 [Compound 61, (S)-(1-(2-(5-(trifluoromethoxy)-1H-indol-3-yl)ethyl)pyrrolidin-2-yl)methanol] | 46.1 | 88.3 | 37.5 | 76.2 | 76 | 57.7
21 | COc1cccc2[nH]c(Br)c(CCN3CCCC3CO)c12 (stereo not shown) [Compound 67, (1-(2-(2-bromo-4-methoxy-1H-indol-3-yl)ethyl)pyrrolidin-2-yl)methanol] | 27.2 | 95.9 | 19.2 | 87.1 | – | –
22 | OCC1CCCN1CCc1c(Br)[nH]c2ccc(F)cc12 (stereo not shown) [Compound 69, (1-(2-(2-bromo-5-fluoro-1H-indol-3-yl)ethyl)pyrrolidin-2-yl)methanol] | 15.1 | 83.8 | 27.6 | 90.5 | – | –
23 | OCC1CCCN1CCc1c(Cl)[nH]c2ccc(F)cc12 (stereo not shown) [Compound 70, (1-(2-(2-chloro-5-fluoro-1H-indol-3-yl)ethyl)pyrrolidin-2-yl)methanol] | 61 | 97.7 | 55.1 | 99.8 | – | –
24 | COc1ccc2[nH]c(Br)c(CCN3CCCC3CO)c2c1 (stereo not shown) [Compound 72, (1-(2-(2-bromo-5-methoxy-1H-indol-3-yl)ethyl)pyrrolidin-2-yl)methanol] | 5.63 | 37.6 | 13.5 | 41.7 | – | –
25 | C[C@H](O)[C@@H]1CCCN1CCc1c[nH]c2ccccc12 [Compound 73, (S)-1-((S)-1-(2-(1H-indol-3-yl)ethyl)pyrrolidin-2-yl)ethan-1-ol] | 61.9 | 101 | 61.2 | 104 | 557 | 958
